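Growth conditions: 96-well plates. Treatment: test compound, 48 hours, 5 concentrations. Analysis: linear interpolation between bracketing concentrations; unreached endpoints set to highest concentration. The concentration for full growth arrest is given as TGI.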
Experiments:
Assay in all cases: NCI tumour cell line growth inhibition, 48 h
[1] = tested on: TK-10 renal
[2] = tested on: SF-295 CNS
[3] = tested on: DLD-1 colon
[4] = tested on: SW-620 colon
[5] = tested on: DMS 114 small cell lung
[6] = tested on: ACHN renal
[7] = tested on: NCI-H460 lung
[8] = tested on: UACC-62 melanoma

Structure (SMILES) | TGI [1] | TGI [2] | TGI [3] | TGI [4] | TGI [5] | TGI [6] | TGI [7] | TGI [8]
COC(=O)[C@H]1C=C[C@@H](C)n2c(=O)c3cc4ccccc4cc3c(=O)n21 | > 100 µM | > 100 µM | > 100 µM | > 100 µM | > 100 µM | > 100 µM | > 100 µM | 
Cc1cc(C)nc(NS(=O)(=O)c2ccc(NC(=O)c3cccc4c(Nc5ccc(S(N)(=O)=O)cc5)c5ccccc5nc34)cc2)n1 | > 100 µM | > 100 µM | > 100 µM | > 100 µM | 42.6 µM | > 100 µM | > 100 µM | > 100 µM
Cc1ccc(NC(=O)CSc2nnc(-c3ccc(N=Cc4ccc(Cl)cc4)cc3)o2)cc1 | > 100 µM | > 100 µM |  | > 100 µM | > 100 µM | > 100 µM | > 100 µM | > 100 µM
COC1(OC)CC2C(=O)N(Cc3ccccc3)C1C=C2S(=O)(=O)c1ccccc1 (configuration not stated) | 49.1 µM | > 100 µM | 27.6 µM | 28.5 µM | 31.9 µM | 44.4 µM | 38.6 µM | 31.3 µM
C/C(CC(=O)Nc1cccc(Cl)c1C)=N\NC(=O)c1ccncc1 | > 100 µM | > 100 µM | > 100 µM | > 100 µM | > 100 µM |  | > 100 µM | > 100 µM
Cc1nc([N+](=O)[O-])cn1CC(=N)N | > 100 µM | > 100 µM | > 100 µM | > 100 µM | > 100 µM | > 100 µM | > 100 µM | > 100 µM
CC1COC(C)(C)P(=O)(c2ccccc2)C1 (configuration not stated) | > 100 µM | > 100 µM | > 100 µM | > 100 µM | > 100 µM | > 100 µM | > 100 µM | > 100 µM
COc1cc(C=O)c(-c2cc(OC)c(OC)cc2C=O)cc1OC | > 100 µM | > 100 µM | > 100 µM | > 100 µM | 88.3 µM | > 100 µM | > 100 µM | > 100 µM
CC(C)N(CCn1c2c3ccccc3ccc2c2oc(=O)c3ccccc3c21)C(C)C | > 100 µM | > 95.1 µM | > 100 µM | > 100 µM | > 100 µM | > 100 µM | > 100 µM | > 100 µM
COC(=O)/C=C1\CCC(C)O1 (configuration not stated) | > 100 µM | > 100 µM | > 100 µM | > 100 µM | > 100 µM | > 100 µM | > 100 µM | > 100 µM
N#CC(C(=O)C(=O)Nc1ccc(Cl)cc1)c1ccccc1 (configuration not stated) | > 100 µM | > 100 µM | > 100 µM | > 100 µM | > 100 µM | > 100 µM | > 100 µM | 77.9 µM
S=c1[nH]c(=S)c2nnn(-c3ccccc3)c2[nH]1 | > 100 µM |  | > 100 µM | > 100 µM | > 100 µM | > 100 µM | > 100 µM | > 100 µM
COC(=O)/C=C/c1c(CC=C(C)C)ncn1C | > 100 µM | > 100 µM | > 100 µM | > 100 µM | > 100 µM | > 100 µM | > 100 µM | > 100 µM
CCCN1CN(C(C(=O)N[C@@H]2C(=O)N3C2SC(C)(C)C3C(=O)O)c2ccc(O)cc2)CSC1=S (some centres not stated) | > 100 µM | > 100 µM | > 100 µM |  | 65.3 µM | > 100 µM | > 100 µM | > 100 µM

Reference: PubChem BioAssay (NCI)
